# Legend:
# [1] = test system: Mycobacterium tuberculosis; assay: Antitubercular activity against Mycobacterium tuberculosis H37Rv assessed as bacterial growth inhibition incubated for 6 days by resazurin reduction microplate assay; assay type: functional; conditions: 144 h, time 6 day
# [2] = test system: Mycobacterium tuberculosis; assay: Antitubercular activity against Mycobacterium tuberculosis H37Rv infected in human HepG2 cells assessed as bacterial growth inhibition incubated for 4 weeks by resazurin reduction microtiter assay; assay type: functional, organism-based; conditions: HepG2, 672 h
# [3] = test system: Mycobacterium tuberculosis; assay: Antitubercular activity against Mycobacterium tuberculosis H37Rv infected in BALB/c mouse assessed as reduction in bacterial load at 200 mg/kg, po for 10 days by CFU analysis; assay type: functional; conditions: time 10 day
# [4] = test system: Mycobacterium tuberculosis; assay: Antitubercular activity against Mycobacterium tuberculosis H37Rv TMC102 assessed as bacterial growth inhibition; assay type: functional
# [5] = test system: Mycobacteroides abscessus; assay: Antitubercular activity against Mycobacterium abscessus CIP104536 assessed as bacterial growth inhibition incubated 3 to 5 days by resazurin based broth microdilution method; assay type: functional; conditions: time 3-5 day
# [6] = test system: Mycobacteroides abscessus; assay: Antitubercular activity against Mycobacterium abscessus 3321 assessed as bacterial growth inhibition incubated 3 to 5 days by resazurin based broth microdilution method; assay type: functional; conditions: time 3-5 day
# [7] = test system: Mycobacteroides abscessus; assay: Antitubercular activity against Mycobacterium abscessus 2069 assessed as bacterial growth inhibition incubated 3 to 5 days by resazurin based broth microdilution method; assay type: functional; conditions: time 3-5 day
# [8] = test system: Mycobacteroides abscessus; assay: Antitubercular activity against Mycobacterium abscessus 3022 assessed as bacterial growth inhibition incubated 3 to 5 days by resazurin based broth microdilution method; assay type: functional; conditions: time 3-5 day
# [9] = test system: Mycobacteroides abscessus; assay: Antitubercular activity against Mycobacterium abscessus 1298 assessed as bacterial growth inhibition incubated 3 to 5 days by resazurin based broth microdilution method; assay type: functional; conditions: time 3-5 day
# [10] = test system: Mycobacteroides abscessus; assay: Antitubercular activity against Mycobacterium abscessus 2587 assessed as bacterial growth inhibition incubated 3 to 5 days by resazurin based broth microdilution method; assay type: functional; conditions: time 3-5 day
# [11] = test system: Mycobacteroides abscessus; assay: Antitubercular activity against Mycobacterium abscessus CF assessed as bacterial growth inhibition incubated 3 to 5 days by resazurin based broth microdilution method; assay type: functional; conditions: time 3-5 day
# [12] = test system: Mycobacteroides abscessus; assay: Antitubercular activity against Mycobacterium abscessus 2524 assessed as bacterial growth inhibition incubated 3 to 5 days by resazurin based broth microdilution method; assay type: functional; conditions: time 3-5 day
# [13] = test system: Mycobacteroides abscessus; assay: Antitubercular activity against Mycobacterium abscessus 2648 assessed as bacterial growth inhibition incubated 3 to 5 days by resazurin based broth microdilution method; assay type: functional; conditions: time 3-5 day
# [14] = test system: Mycobacteroides abscessus; assay: Antitubercular activity against Mycobacterium abscessus 5175 assessed as bacterial growth inhibition incubated 3 to 5 days by resazurin based broth microdilution method; assay type: functional; conditions: time 3-5 day
# [15] = test system: Mycobacterium tuberculosis; assay: Antitubercular activity against Mycobacterium tuberculosis H37Rv assessed as bacterial growth inhibition incubated for 7 days by Alamar blue based fluorescence assay; assay type: functional; conditions: 168 h, time 7 day
# [16] = test system: Mycobacterium tuberculosis; assay: Antitubercular activity against Mycobacterium tuberculosis H37Rv assessed as bacterial growth inhibition incubated for 14 days by agar plate method; assay type: functional; conditions: 336 h, time 14 day
# [17] = test system: Mycobacterium tuberculosis; assay: Antitubercular activity against Mycobacterium tuberculosis Erdman assessed as bacterial growth inhibition incubated for 14 days by agar plate method; assay type: functional; conditions: 336 h, time 14 day
# Mycobacterium marinum = assay: Antitubercular activity against Mycobacterium marinum strain M assessed as bacterial growth inhibition incubated for 14 days by agar plate method; assay type: functional; conditions: 336 h, time 14 day
# [18] = test system: Mycobacterium tuberculosis; assay: Antimycobacterial activity against Mycobacterium tuberculosis CIP103471 infected in human U-937 cells assessed as bacterial growth inhibition incubated for 7 days; assay type: functional; conditions: CIP103471, 168 h, time 7 day
# [19] = test system: Mycobacterium tuberculosis; assay: Antitubercular activity against Mycobacterium tuberculosis ATCC 27294 (H37Rv) assessed as bacterial growth inhibition by agar dilution method; assay type: functional
# [20] = test system: Mycobacterium tuberculosis; assay: Antitubercular activity against Mycobacterium tuberculosis assessed as bacterial growth inhibition in 7H9 medium incubated for 5 days by microplate reader analysis; assay type: functional; conditions: 120 h, time 5 day
# [21] = test system: Mycobacterium tuberculosis; assay: In vivo antimycobacterial activity against Mycobacterium tuberculosis H37Rv infected in BALB/c mouse assessed as reduction in bacterial load in lungs at 40 to 100 mg/kg, po and measured after 4 weeks; assay type: functional; conditions: dose 40-100 mg/kg
# [22] = test system: Mycobacterium tuberculosis; assay: In vivo antimycobacterial activity against Mycobacterium tuberculosis H37Rv infected in BALB/c mouse assessed as reduction in bacterial load in spleen at 40 to 100 mg/kg, po and measured after 4 weeks; assay type: functional; conditions: dose 40-100 mg/kg
# [23] = test system: Mycobacterium tuberculosis; assay: Antitubercular activity against Mycobacterium tuberculosis H37Rv assessed as extracellular bacterial growth inhibition; assay type: functional
# [24] = test system: Mycobacterium tuberculosis; assay: Antitubercular activity against Mycobacterium tuberculosis H37Rv assessed as intracellular bacterial growth inhibition; assay type: functional
# [25] = test system: Mycobacterium tuberculosis; assay: Antitubercular activity against Mycobacterium tuberculosis H37Rv assessed as bacterial growth inhibition incubated for 6 days by MABA analysis; assay type: functional; conditions: 144 h, time 6 day
# [26] = test system: Mycobacterium tuberculosis; assay: Antitubercular activity against Mycobacterium tuberculosis H37Rv expressing the luxABCDE operon assessed as bacterial growth inhibition incubated for 28 hrs in aerobic condition by luminescence analysis; assay type: functional
# [27] = test system: Mycobacterium tuberculosis; assay: Antitubercular activity against Mycobacterium tuberculosis H37Rv expressing the luxABCDE operon assessed as bacterial growth inhibition incubated for 5 days in low oxygen condition by LORA Assay; assay type: functional; conditions: 120 h, time 5 day
# [28] = test system: Mycobacterium tuberculosis; assay: Antitubercular activity against Mycobacterium tuberculosis H37Rv expressing the luxABCDE operon infected in human THP-1 cells assessed as reduction in intracellular bacterial load incubated for 72 hrs by luminescence analysis; assay type: functional, organism-based; conditions: THP-1, 72 h
# [29] = test system: Mycobacterium tuberculosis; assay: In vivo antimycobacterial activity against Mycobacterium tuberculosis H37Rv infected in BALB/c mouse assessed as reduction in bacterial load at 200 mg/kg, po for 2 weeks; assay type: functional
# [30] = test system: Mycobacterium tuberculosis; assay: In vivo antimycobacterial activity against Mycobacterium tuberculosis H37Rv infected in BALB/c mouse assessed as reduction in bacterial load at 300 mg/kg, po for 5 days; assay type: functional; conditions: time 5 day
# [31] = test system: Mycobacterium tuberculosis; assay: Antitubercular activity against Mycobacterium tuberculosis H37Rv assessed as bacterial growth inhibition by REMA analysis; assay type: functional
# [32] = test system: Mycobacterium tuberculosis; assay: In vivo antimycobacterial activity against Mycobacterium tuberculosis H37Rv infected in mouse assessed as reduction in log10 CFU at 1 to 2 times MIC and measured after 10 days; assay type: functional; conditions: time 10 day
# [33] = test system: Mycobacterium tuberculosis; assay: Antimycobacterial activity against Mycobacterium tuberculosis H37Rv infected in THP-1 cells assessed as reduction in log10 CFU at MIC and measured after 2 to 7 days; assay type: functional; conditions: time 2-7 day
smiles,measurement,setting,value
O=C(/C=C/c1cccs1)N1CCN(Cc2ccc3c(c2)OCO3)CC1,MIC,[1],0.05 µg/mL
same,IC50,[2],0.1 µg/mL
same,Activity,[3],0.4 log10CFU
O=C(Nc1ccc(F)c(F)c1F)NC12CC3CC(CC(C3)C1)C2,MIC,[4],0.1 µg/mL
Cc1ccccc1CN1CCC(O)(c2ccc(Cl)c(C(F)(F)F)c2)CC1,MIC,[5],0.125 µg/mL
same,MIC,[6],0.125 µg/mL
same,MIC,[7],0.125 µg/mL
same,MIC,[8],0.125 µg/mL
same,MIC,[9],0.125 µg/mL
same,MIC,[10],0.125 µg/mL
same,MIC,[11],0.125 µg/mL
same,MIC,[12],0.125 µg/mL
same,MIC,[13],0.125 µg/mL
same,MIC,[14],0.125 µg/mL
COc1ncccc1Nc1cc2nc3ccccc3n(-c3ccc(OC(F)(F)F)cc3)c-2c/c1=N\C1CCC(OC)CC1 (centres undefined),MIC,[15],0.016 µg/mL
Cc1cc2oc(=O)cc(-c3cccc(N)c3)c2c(C)c1-c1ccc(CN2CCOCC2)cc1,MIC,[16],0.24 µM
same,MIC,[17],0.4 µM
same,MIC,Mycobacterium marinum,0.83 µM
Cc1c(CN2CCN(C)CC2)cc(-c2ccc(Cl)cc2)n1-c1ccc(Cl)cc1,MIC,[18],1 µg/mL
CCOC(=O)NC(=O)c1ccsc1NC(=O)c1nc2ccccc2s1,MIC,[19],0.19 µg/mL
same,MIC,[20],0.19 µg/mL
same,Activity,[21],2 log10CFU
same,Activity,[22],3 log10CFU
COc1ccc(OCCNC(=O)c2cc([N+](=O)[O-])cc([N+](=O)[O-])c2)cc1,MIC,[23],0.2 µM
same,MIC,[24],0.2 µM
CCOC(=O)c1c(NC(=O)c2c(F)c(F)c(F)c(F)c2F)sc2c1CCN(CC)C2,MIC,[25],0.69 µM
same,MIC,[26],0.23 µM
same,MIC,[27],> 200 µM
same,IC50,[28],5.6 µM
CNC(=O)c1c(-c2ccc(O)cc2)oc2ccc(O)c(CN3CCCCC3)c12,Activity,[29],6.8 log10CFU
same,Activity,[30],7 log10CFU
COc1ncnc(Cn2cnc3c(C(=O)NCCF)cccc32)c1C,MIC,[31],1.56 µM
same,Activity,[32],>3 log10CFU
same,Activity,[33],1 log10CFU

# — ChEMBL document CHEMBL5260858, “Targeting mycobacterial membranes and membrane proteins: Progress and limitations” (Bioorg Med Chem, 2023)
